Assay results taken from US6962920B2, “Pyrimidine derivatives and methods of making and using these derivatives” (Duquesne University of the Holy Ghost, priority 1992, dated 2005).
pIC50: −log10 of the molar value. Read-outs that look alike come from different tables or passages of the source.

Tests used:
BT-549 = experiment: NCI in vitro anti-cancer activity, Breast Cancer; assay type: cell-based
MDA-MB-435 = experiment: NCI in vitro anti-cancer activity, Breast Cancer; assay type: cell-based
MALME-3M = experiment: NCI in vitro anti-cancer activity, Melanoma; assay type: cell-based
DU-145 = experiment: NCI in vitro anti-cancer activity, Prostate Cancer; assay type: cell-based
KM12 = experiment: NCI in vitro anti-cancer activity, Colon Cancer; assay type: cell-based
HS 578T = experiment: NCI in vitro anti-cancer activity, Breast Cancer; assay type: cell-based
MCF7 = experiment: NCI in vitro anti-cancer activity, Breast Cancer; assay type: cell-based
NCI-H23 = assay type: cell-based
IGROV1 = experiment: NCI in vitro anti-cancer activity, Ovarian Cancer; assay type: cell-based
SK-MEL-28 = experiment: NCI in vitro anti-cancer activity, Melanoma; assay type: cell-based
RXF 393 = experiment: NCI in vitro anti-cancer activity, Renal Cancer; assay type: cell-based
SK-OV-3 = experiment: NCI in vitro anti-cancer activity, Ovarian Cancer; assay type: cell-based
Tg DHFR = target: T1, Tg DHFR (Toxoplasma gondii, UniProt Q07422); experiment: biochemical; assay type: biochemical
T1 sequence (Q07422 1-610): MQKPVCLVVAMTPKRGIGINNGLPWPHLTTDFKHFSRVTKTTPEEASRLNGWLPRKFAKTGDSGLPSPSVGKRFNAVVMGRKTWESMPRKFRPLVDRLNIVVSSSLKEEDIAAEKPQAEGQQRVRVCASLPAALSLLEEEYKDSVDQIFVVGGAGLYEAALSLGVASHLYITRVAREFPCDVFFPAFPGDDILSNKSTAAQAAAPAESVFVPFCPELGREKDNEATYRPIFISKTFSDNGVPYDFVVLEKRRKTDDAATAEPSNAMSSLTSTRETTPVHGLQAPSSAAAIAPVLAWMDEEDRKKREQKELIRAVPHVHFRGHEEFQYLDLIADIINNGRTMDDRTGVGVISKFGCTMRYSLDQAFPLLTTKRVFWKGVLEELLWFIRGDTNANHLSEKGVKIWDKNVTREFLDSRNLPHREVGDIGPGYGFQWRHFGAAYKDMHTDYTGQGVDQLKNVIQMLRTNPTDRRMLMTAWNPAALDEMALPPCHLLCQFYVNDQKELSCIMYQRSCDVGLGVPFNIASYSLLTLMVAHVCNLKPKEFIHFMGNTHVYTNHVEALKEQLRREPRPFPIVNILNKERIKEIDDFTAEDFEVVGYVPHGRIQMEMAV
Description: The selectivity ratio is a measure of the selectivity of a compound for Pc DHFR or Tg DHFR and is expressed as the IC50 value of the DHFR from rate liver (RL) divided by the IC50 value of either the Pc DHFR or the Tg DHFR, depending on which organism the compounds are being tested against. For example, the selectivity ratio of a compound is calculated by the following formula: [formula]

CAKI-1 = experiment: NCI in vitro anti-cancer activity, Renal Cancer; assay type: cell-based
OVCAR-5 = experiment: NCI in vitro anti-cancer activity, Ovarian Cancer; assay type: cell-based
U251 = experiment: NCI in vitro anti-cancer activity, CNS Cancer; assay type: cell-based
Pc DHFR = target: T2, Pc DHFR (Pneumocystis carinii, UniProt P16184); experiment: biochemical
T2 sequence (P16184 1-206): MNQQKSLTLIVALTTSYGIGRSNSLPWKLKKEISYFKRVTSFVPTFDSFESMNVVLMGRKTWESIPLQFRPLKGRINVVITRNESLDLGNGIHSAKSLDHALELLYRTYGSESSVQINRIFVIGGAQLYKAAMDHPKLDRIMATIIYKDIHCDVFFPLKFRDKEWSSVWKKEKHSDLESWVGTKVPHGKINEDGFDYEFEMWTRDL

786-0 = experiment: NCI in vitro anti-cancer activity, Renal Cancer; assay type: cell-based
UACC-62 = experiment: NCI in vitro anti-cancer activity, Melanoma; assay type: cell-based
HOP-92 = assay type: cell-based
SW-620 = experiment: NCI in vitro anti-cancer activity, Colon Cancer; assay type: cell-based
NCI-H226 = assay type: cell-based
SNB-19 = experiment: NCI in vitro anti-cancer activity, CNS Cancer; assay type: cell-based
SF-268 = experiment: NCI in vitro anti-cancer activity, CNS Cancer; assay type: cell-based
EKVX = assay type: cell-based
SN12C = experiment: NCI in vitro anti-cancer activity, Renal Cancer; assay type: cell-based
A498 = experiment: NCI in vitro anti-cancer activity, renal cancer
Description: The compounds identified below were further tested for their in vitro anti-cancer activity by the National Cancer Institute.

NCI-H460 = assay type: cell-based; conditions: Table 29, Non-Small Cell Lung Cancer
[1] = Table 29, Breast Cancer, BT-549
[2] = Table 29, Prostate Cancer, DU-145
[3] = Table 29, Non-Small Cell Lung Cancer, NCI-H23
[4] = Table 29, Ovarian Cancer, IGROV1
[5] = Table 29, Renal Cancer, RXF 393
[6] = Table 29, Ovarian Cancer, SK-OV-3
[7] = Table 29, Ovarian Cancer, OVCAR-5
[8] = Table 29, Non-Small Cell Lung Cancer, HOP-92
[9] = Table 29, Non-Small Cell Lung Cancer, NCI-H226
[10] = Table 29, Non-Small Cell Lung Cancer, read-out: GI50

Nc1nc(N)c2c(CNc3ccc(C(=O)N[C@@H](CCC(=O)O)C(=O)O)cc3)c[nH]c2n1 [Compound 9]
GI50 (BT-549; Homo sapiens, BT-549, Breast Cancer): > 100 µM | GI50 (MDA-MB-435; Homo sapiens): 0.687 µM | GI50 (MALME-3M; Homo sapiens, Melanoma): < 0.01 µM | GI50 (DU-145; Homo sapiens, DU-145, Prostate Cancer): 0.0109 µM | GI50 (KM12; Homo sapiens, KM12, Colon Cancer): 33.2 µM | GI50 (HS 578T; Homo sapiens, Breast Cancer): > 100 µM | GI50 (MCF7; Homo sapiens, MCF7, Breast Cancer): < 0.01 µM | GI50 (NCI-H23; Homo sapiens, NCI-H23, Non-Small Cell Lung Cancer): 0.0575 µM | GI50 (IGROV1; Homo sapiens, IGROV-1, IGROV1, Ovarian Cancer): < 0.01 µM | GI50 (SK-MEL-28; Homo sapiens, SK-MEL-28, Melanoma): > 100 µM | GI50 (RXF 393; Homo sapiens, RXF 393, Renal Cancer): > 100 µM | GI50 (SK-OV-3; Homo sapiens, SK-OV-3, Ovarian Cancer): > 100 µM | pIC50 (Tg DHFR): 6.68 | GI50 (CAKI-1; Homo sapiens, CAKI-1, Renal Cancer): < 0.01 µM | GI50 (OVCAR-5; Homo sapiens, OVCAR-5, Ovarian Cancer): > 100 µM | GI50 (U251; Homo sapiens, U-251, U251, CNS Cancer): < 0.01 µM | pIC50 (Pc DHFR): 7.42 | GI50 (786-0; Homo sapiens, 786-0, Renal Cancer): < 0.01 µM | GI50 (UACC-62; Homo sapiens, UACC-62, Melanoma): < 0.01 µM | GI50 (HOP-92; Homo sapiens, HOP-92, Non-Small Cell Lung Cancer): 8.4 µM | GI50 (SW-620; Homo sapiens, SW-620, Colon Cancer): 3.15 µM | GI50 (NCI-H226; Homo sapiens, NCI-H226, Non-Small Cell Lung Cancer): > 100 µM | GI50 (SNB-19; Homo sapiens, SNB-19, CNS Cancer): > 100 µM | GI50 (SF-268; Homo sapiens, SF-268, CNS Cancer): < 0.01 µM | GI50 (EKVX; Homo sapiens, Non-Small Cell Lung Cancer, read-out: GI50): 39.7 µM | GI50 (SN12C; Homo sapiens, Renal Cancer): < 0.01 µM

COc1ccc(CCc2cn(Cc3ccccc3)c3nc(N)nc(C)c23)cc1 [Compound 113-118]
GI50 (BT-549; [1]): 40.9 µM | GI50 (A498; Table 29, Renal Cancer, A498): 14.2 µM | GI50 (MDA-MB-435; Table 29, Breast Cancer): 95.4 µM | GI50 (MALME-3M; Table 29, Melanoma): 19.5 µM | GI50 (DU-145; [2]): > 100 µM | GI50 (NCI-H460): 42.5 µM | GI50 (KM12; Table 29, Colon Cancer, KM12): 48.4 µM | GI50 (HS 578T; Table 29, Breast Cancer): < 100 µM | GI50 (MCF7; Table 29, Breast Cancer, MCF7): 29.6 µM | GI50 (NCI-H23; [3]): 97.3 µM | GI50 (IGROV1; [4]): 68.2 µM | GI50 (SK-MEL-28; Table 29, Melanoma, SK-MEL-28): > 100 µM | GI50 (RXF 393; [5]): 94.7 µM | GI50 (SK-OV-3; [6]): > 100 µM | % inhibition Tg DHFR (Tg DHFR; @ 31 μM): 15% @ 31 μM | GI50 (CAKI-1; Table 29, Renal Cancer, CAKI-1): > 100 µM | GI50 (OVCAR-5; [7]): > 100 µM | % inhibition Pc DHFR (Pc DHFR; @ 31 μM): 60% @ | GI50 (786-0; Table 29, Renal Cancer, 786-0): > 100 µM | GI50 (UACC-62; Table 29, Melanoma, UACC-62): 80 µM | GI50 (HOP-92; [8]): 31 µM | GI50 (SW-620; Table 29, Colon Cancer, SW-620): > 100 µM | GI50 (NCI-H226; [9]): > 100 µM | GI50 (SNB-19; Table 29, CNS Cancer, SNB-19): > 100 µM | GI50 (SF-268; Table 29, CNS Cancer, SF-268): > 100 µM | GI50 (SN12C; Table 29, Renal Cancer): > 100 µM

COc1ccccc1CCc1cn(Cc2ccccc2)c2nc(N)nc(C)c12 [Compound 113-148]
GI50 (BT-549; [1]): 15.8 µM | GI50 (A498; Table 29, Renal Cancer, A498): 1.94 µM | GI50 (MDA-MB-435; Table 29, Breast Cancer): 13 µM | GI50 (MALME-3M; Table 29, Melanoma): 18.6 µM | GI50 (DU-145; [2]): 13.1 µM | GI50 (NCI-H460): 7.7 µM | GI50 (KM12; Table 29, Colon Cancer, KM12): 12.2 µM | GI50 (HS 578T; Table 29, Breast Cancer): 14.9 µM | GI50 (MCF7; Table 29, Breast Cancer, MCF7): 12.6 µM | GI50 (NCI-H23; [3]): 8.47 µM | GI50 (IGROV1; [4]): 14.2 µM | GI50 (SK-MEL-28; Table 29, Melanoma, SK-MEL-28): 15.7 µM | GI50 (RXF 393; [5]): 11.1 µM | GI50 (SK-OV-3; [6]): 17.3 µM | % inhibition Tg DHFR (Tg DHFR; @ 85 μM): 27% @ 85 μM | GI50 (CAKI-1; Table 29, Renal Cancer, CAKI-1): 11.6 µM | GI50 (OVCAR-5; [7]): 10.8 µM | GI50 (U251; Table 29, CNS Cancer, U251): 10.4 µM | % inhibition Pc DHFR (Pc DHFR; @ 85 μM): 45% @ | GI50 (786-0; Table 29, Renal Cancer, 786-0): 11.6 µM | GI50 (UACC-62; Table 29, Melanoma, UACC-62): 12.3 µM | GI50 (HOP-92; [8]): 16.3 µM | GI50 (SW-620; Table 29, Colon Cancer, SW-620): 17.1 µM | GI50 (NCI-H226; [9]): 12.4 µM | GI50 (SNB-19; Table 29, CNS Cancer, SNB-19): 10.9 µM | GI50 (SF-268; Table 29, CNS Cancer, SF-268): 11 µM | GI50 (EKVX; [10]): 5.78 µM | GI50 (SN12C; Table 29, Renal Cancer): 13.3 µM

COc1cc(CCc2c[nH]c3nc(N)nc(C)c23)cc(OC)c1OC [Compound 113-154A]
GI50 (BT-549; [1]): 19.3 µM | GI50 (A498; A498 renal cancer cell line): selective | GI50 (A498; Table 29, Renal Cancer, A498): 0.845 µM | GI50 (MDA-MB-435; Table 29, Breast Cancer): 39.2 µM | GI50 (MALME-3M; Table 29, Melanoma): 47.4 µM | GI50 (DU-145; [2]): 75.6 µM | GI50 (NCI-H460): 19.3 µM | GI50 (KM12; Table 29, Colon Cancer, KM12): 46.5 µM | GI50 (HS 578T; Table 29, Breast Cancer): 27 µM | GI50 (MCF7; Table 29, Breast Cancer, MCF7): 27.2 µM | GI50 (NCI-H23; [3]): 26.9 µM | GI50 (IGROV1; [4]): 17.3 µM | GI50 (RXF 393; [5]): 32.7 µM | GI50 (SK-OV-3; [6]): 88.8 µM | Selectivity Ratio: RL DHFR/Tg (Tg DHFR; Table 26): 0.23 | pIC50 (Tg DHFR; Table 26, read-out: Inhibitory Concentrations (IC50) Tg DHFR): 4.99 | GI50 (CAKI-1; Table 29, Renal Cancer, CAKI-1): 49.5 µM | GI50 (U251; Table 29, CNS Cancer, U251): 23.4 µM | Selectivity Ratio: RL DHFR/Pc DHFR (Pc DHFR; Table 26): 0.04 | pIC50 (Pc DHFR; Table 26, read-out: Inhibitory Concentrations (IC50) Pc DHFR): 4.26 | GI50 (786-0; Table 29, Renal Cancer, 786-0): 32.8 µM | GI50 (UACC-62; Table 29, Melanoma, UACC-62): 19.6 µM | GI50 (HOP-92; [8]): 18.2 µM | GI50 (NCI-H226; [9]): 23 µM | GI50 (SNB-19; Table 29, CNS Cancer, SNB-19): 67.4 µM | GI50 (SF-268; Table 29, CNS Cancer, SF-268): 39.5 µM | GI50 (EKVX; Non-Small Cell Lung Cancer): selective | GI50 (EKVX; [10]): 5.21 µM | GI50 (SN12C; Table 29, Renal Cancer): 43.1 µM
